Tests used:
cerebral edema = conditions: rats; second administration; cited from earlier work
[1] = test system: patients with mixed dementia and patients with Alzheimer's disease; assay: Study of pharmacological activity: half-year neurological study (MMSE, visual and aural-speech memory, clock drawing test, Schulte Table); format: in vivo, human
Text: The subjects under the study have been 25 patients with mixed dementia and 12 patients with Alzheimer's disease. The average age of the patients is 70±3 years. Dementia has been diagnosed in accordance with the dementia criteria under ICD-10 [International statistic classification of diseases and problems relating to health. Tenth revision (ICD-10). V.1 (Part 1). Geneva: WHO, 1995; p. 315, 510-1]. Dimentia severity has been assessed according to Clinical Dementia Rating Scale—CDR [Hughes C P, Berg L, Danziger W L et al. A new clinical scale for the staging of dementia. Brit J Psychiatry 1982; 140: 566-72]. In the group of patients with mixed dementia it is 1.2±0.3, and in the group with Alzheimer's disease—1.1±0.36. All the patients have been subdivided into two groups. The first group has received […] of memantine once a day. The second group received capsules according to Example 4. A complex neurological study has been conducted with the patients for half a year, the study included brief evaluation of mental status (MMSE), a test for visual and aural-speech memory under the dementia scale, the clock drawing test as well as the test for attention—Schulte Table. The outcome has been processed with the use of the statistical package for social sciences (SPSS), Version 10.0.

[2] = cited from earlier work
[3] = test system: dopamine concentration in the forebrain regions; conditions: cited from earlier work

Structure (SMILES) | reduction of the volume of cerebral edema (cerebral edema) [times] | increase of clock drawing test ([1]; in 6 months) | increase of total score of the mental status evaluation (MMSE) ([1]; in 6 months, patients with mixed dementia or Alzheimer's disease) | lowering of Schulte test ([1]; in 6 months, test for attention) | increase of visual memory ([1]; in 6 months, test under the dementia scale) | patients with positive therapeutic effect ([1]; patients with Alzheimer's disease) [%] | patients with positive therapeutic effect ([1]; patients with mixed dementia) [%] | side effects ([1]; patients, half-year study) | time to concentration peak in the brain ([2]; after a single dosing) | half-life ([2]; in vivo) | dopamine concentration ([3]; after a single dosing) | rise of dopamine concentration in the forebrain regions ([3]; during prolonged administration) [times]
COc1ccc2[nH]cc(CCNC(C)=O)c2c1 [melatonin, N-acetyl-5-methoxytriptamine] | 2 | – | – | – | – | – | – | – | – | – | – | –
CC12CC3CC(C)(C1)CC(N)(C3)C2 [memantine, 1-amino-3,5-dimethyladamantan] | – | 0.2±0.1 | 1.5±0.3 | 20.5±3.6 | 0.5±0.2 | 25 | 86 | increase in the intracranial pressure was observed | one | approximately 100 hours | remains unchanged | ≥ 10

From patent US20150157604A1, “PHARMACEUTICAL COMPOSITION FOR THE PROPHYLAXIS AND TREATMENT OF PSYCHOLOGICAL, BEHAVIORAL AND COGNITIVE DISORDERS” (LTD << VALENTA-INTELLEKT >>, priority 2012, published 2015)
